Results taken from US12482280B2, “Biological image transformation using machine-learning models” (Insitro, Inc., priority 2020, dated 2025).

Tested on: tissues with NASH
Assay: Evaluation of drug treatment in NASH disease model using GAN-generated phase/fluorescence images
Type: cell-based
Details: NASH 2X + ACC inhibitor
Description: FIG. 16A illustrates synthetic images generated by an exemplary GAN model to study the NASH disease, in accordance with some embodiments. In the depicted example, Hepg2 cells with NASH genetic background are illuminated using an optimal illumination pattern identified using techniques described herein, and a bright-field image is captured. The bright-field image is inputted into a GAN model, which outputs a generated phase image and a generated fluorescence/bodipy image in FIG. 16A. The GAN model used in FIG. 16A can be configured to include a trained classifier as described with reference to FIGS. 14A-B and 15. The classifier has two conditions: a healthy condition (e.g., no perturbations) and a diseased condition (e.g., inflammation cocktail plus fatty acid). […]
The synthetic images generated by the GAN model can also be used to evaluate the efficacy of a treatment. […] The images can be phase images or fluorescence images generated using the techniques described herein (e.g., from bright-field images). Each phase or fluorescence image can be generated based on multiple bright-field images and thus comprises richer information such as phase shift information. Accordingly, the generated phase or fluorescence images can allow for higher precision in downstream analyses, as described below. […]

COc1ccccc1[C@H](Cn1c(=O)n(C(C)(C)C(=O)O)c(=O)c2c(C)c(-c3ncco3)sc21)OC1CCOCC1 [ACC inhibitor, firsocostate]
probability of having the disease outputted by a classifier trained on generated images (distribution, FIG. 16C) (50 uM, treated tissues vs untreated diseased tissues, generated images): lower probabilities of having the disease than generated images of diseased tissues | image clusters in an embedding space (UMAP, FIG. 16D) (generated images of treated vs diseased vs healthy tissues): moves away from the cluster of generated diseased images and toward the cluster of generated healthy images
